Assay results published in US5891882A, “Benzopyranopyrrole and benzopyranopyridine α-1 adenergic compounds” (priority 1997, dated 1999).
Counter-ions that a name gives are not always drawn.

What was measured:
[1] = target: T1, α-1B adrenoreceptor (rat spleen) (Rattus norvegicus, UniProt P15823); assay: Functional antagonism: inhibition of phenylephrine-induced contraction of rat spleen; format: cell-based; conditions: rat spleen, phenylephrine-induced contraction, Schild plot
T1 construct: from tissue; host or cells: rat spleen
T1 sequence (P15823 1-515): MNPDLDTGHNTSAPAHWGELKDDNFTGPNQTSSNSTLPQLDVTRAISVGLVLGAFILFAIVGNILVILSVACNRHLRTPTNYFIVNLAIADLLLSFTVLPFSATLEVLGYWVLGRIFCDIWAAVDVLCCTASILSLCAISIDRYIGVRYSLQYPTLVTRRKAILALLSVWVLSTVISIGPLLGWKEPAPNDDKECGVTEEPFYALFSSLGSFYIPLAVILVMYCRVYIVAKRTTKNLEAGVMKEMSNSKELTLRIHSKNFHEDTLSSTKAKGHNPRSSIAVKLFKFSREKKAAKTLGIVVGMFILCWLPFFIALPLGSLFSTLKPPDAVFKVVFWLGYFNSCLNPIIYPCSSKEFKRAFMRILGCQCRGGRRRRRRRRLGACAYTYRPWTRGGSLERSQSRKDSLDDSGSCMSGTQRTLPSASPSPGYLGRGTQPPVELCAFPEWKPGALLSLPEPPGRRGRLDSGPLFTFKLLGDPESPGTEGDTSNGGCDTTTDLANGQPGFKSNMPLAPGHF
Source text: (§1) Functional assays indicative of pharmacologically defined α-1 adrenoreceptors were used to further characterize compounds. Inhibition of phenylephrine (PE)-induced contraction of canine prostate smooth muscle can be correlated with α-1A adrenoreceptor activation. […] For each of these models, agonist dose response curves were repeated against increasing concentrations of test agent to derive a Schild plot [log ([…]) against log (molarity of test agent)] to determine the pA2.

[2] = target: T2, α-1A adrenoreceptor (rat vas deferens) (Rattus norvegicus, UniProt P43140); assay: Functional antagonism: inhibition of phenylephrine-induced contraction of rat vas deferens; format: cell-based; conditions: rat vas deferens, phenylephrine-induced contraction, Schild plot
T2 construct: from tissue; host or cells: rat vas deferens
T2 sequence (P43140 1-466): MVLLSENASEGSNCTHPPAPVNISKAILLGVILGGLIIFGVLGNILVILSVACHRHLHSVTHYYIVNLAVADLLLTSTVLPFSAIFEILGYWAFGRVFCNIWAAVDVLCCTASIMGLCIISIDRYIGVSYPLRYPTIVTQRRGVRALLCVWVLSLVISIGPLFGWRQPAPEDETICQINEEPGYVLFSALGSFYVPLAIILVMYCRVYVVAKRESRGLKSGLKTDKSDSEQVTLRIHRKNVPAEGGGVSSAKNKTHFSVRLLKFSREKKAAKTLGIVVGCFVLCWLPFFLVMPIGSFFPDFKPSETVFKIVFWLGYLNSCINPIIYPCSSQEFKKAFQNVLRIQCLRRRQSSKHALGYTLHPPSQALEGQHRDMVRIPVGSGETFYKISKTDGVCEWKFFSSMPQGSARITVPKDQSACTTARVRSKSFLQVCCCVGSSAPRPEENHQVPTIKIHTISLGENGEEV
Source text: as §1

[3] = target: T3, α-1 Adrenoceptors (Rat Aorta) (Rattus norvegicus, UniProt P23944); assay: Functional antagonism at α-1 adrenoceptors, rat aorta; format: cell-based; conditions: read-out: In Vitro Characterization (pA2) Rat Aorta (converted)
T3 construct: Rat Aorta; from tissue; host or cells: rat aorta
T3 sequence (P23944 1-561): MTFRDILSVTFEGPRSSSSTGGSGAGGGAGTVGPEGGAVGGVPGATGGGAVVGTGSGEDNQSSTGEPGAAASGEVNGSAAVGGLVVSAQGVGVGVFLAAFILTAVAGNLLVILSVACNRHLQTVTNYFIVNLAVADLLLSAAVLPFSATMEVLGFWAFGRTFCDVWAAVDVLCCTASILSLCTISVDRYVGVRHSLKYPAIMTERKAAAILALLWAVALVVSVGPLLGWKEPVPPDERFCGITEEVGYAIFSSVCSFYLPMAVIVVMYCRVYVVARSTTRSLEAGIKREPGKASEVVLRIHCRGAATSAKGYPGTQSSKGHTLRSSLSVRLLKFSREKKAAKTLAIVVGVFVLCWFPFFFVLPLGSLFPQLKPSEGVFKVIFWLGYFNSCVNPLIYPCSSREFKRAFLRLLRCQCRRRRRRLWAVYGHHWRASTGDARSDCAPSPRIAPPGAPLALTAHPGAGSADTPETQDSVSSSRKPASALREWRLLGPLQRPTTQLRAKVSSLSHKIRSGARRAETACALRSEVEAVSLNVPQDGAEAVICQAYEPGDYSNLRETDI
Outline: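 Phenylephrine dose-response curves for contraction were repeated against increasing test-agent concentrations. pA2 was derived by Schild plot [[…] vs log molarity of test agent].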

[4] = antihypertensive treatment; cited from earlier work
α-1 adrenoreceptor = conditions: cited from earlier work

SMILES	In Vitro Characterization (pA2) Rat Spleen [1]	In Vitro Characterization (pA2) Rat Vas [2]	Kb [3] [nM]	urinary incontinence in women [4]	dose limiting side effects (α-1 adrenoreceptor; BPH treatment)	urinary flow rates and subjective symptom scores (α-1 adrenoreceptor; longer term studies, BPH)
COc1cccc2c1[C@@H]1CN(CCCCn3c(=O)[nH]c4c(sc5c(Cl)nccc54)c3=O)C[C@@H]1CO2 [Example 53, 3-[4-((3aR,9bR)-cis-9-Methoxy-1,2,3,3a,4,9b-hexahydro-[1]-benzopyrano[3,4-c]pyrrol-2-yl)butyl]-6-chloro-pyrido[4',3':4,5]thieno[3,2-d]pyrimidine-2,4(1H,3H)-dione]	7.2	9.31	1.07			
COc1ccc2sc3c(=O)n(CCCCN4C[C@@H]5COc6cccc(OC)c6[C@@H]5C4)c(=O)[nH]c3c2n1 [Example 30, 3-[4-((3aR,9bR)-cis-9-Methoxy-1,2,3,3a,4,9b-hexahydro-[1]-benzopyrano[3,4-c]pyrrol-2-yl)butyl]-8-methoxy-pyrido[2',3':4,5]thieno[3,2-d]pyrimidine-2,4(1H,3H)-dione hydrochloride]		9.6	0.468			
COc1cc2nc(N3CCN(C(=O)c4ccco4)CC3)nc(N)c2cc1OC [Prazosin, prazosin]				urinary incontinence developed in women	hypotension, dizziness, and muscle fatigue	significant improvements in urinary flow rates and subjective symptom scores
COc1cccc2c1[C@@H]1CN(CCCCn3c(=O)[nH]c4c(sc5ccncc54)c3=O)C[C@H]1CO2 [Example 41, 3-[4-((3aR,9bR)-trans-9-Methoxy-1,2,3,3a,4,9b-hexahydro-[1]-benzopyrano[3,4-c]pyrrol-2-yl)butyl]-pyrido[3',4':4,5]thieno[3,2-d]pyrimidine-2,4(1H,3H)-dione hydrochloride]		9.45	0.017			
